Test results taken from PubChem BioAssay AID248 (DTP/NCI, 2004).
“And” between values parts separate entries of the source, which are not always exact repeats. Equal entries are not always repeated. Inconclusive results and toxic doses are left out. Cut-off read from the data, not from the text of the source: active = T/C of 150% or more; inactive = T/C below 125%.

Test system: L1210 leukemia ip in BDF1 mice, survival T/C
Experiment: NCI In Vivo Anticancer Drug Screen. Data for tumor model L1210 Leukemia (intraperitoneal) in B6D2F1 (BDF1) mice
Settings: endpoint: mean survival time, higher = longer survival
How it was run: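 Each compound was tested against a transplantable tumor grown in mice. The endpoint was survival, with treated animals benchmarked against vehicle controls as a simple ratio.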

[1] = dose: 100.0 mg/kg/injection, schedule: Q04DX003 (ip), vehicle: Klucel (hydroxypropylcellulose) (HPC)
[2] = dose: 200.0 mg/kg/injection, schedule: Q04DX003 (ip), vehicle: Klucel (hydroxypropylcellulose) (HPC)
[3] = dose: 400.0 mg/kg/injection, schedule: Q04DX003 (ip), vehicle: Klucel (hydroxypropylcellulose) (HPC)
[4] = dose: 100.0 mg/kg/injection, schedule: Q04DX003 (ip), vehicle: saline with Tween-80
[5] = dose: 200.0 mg/kg/injection, schedule: Q04DX003 (ip), vehicle: saline with Tween-80
[6] = dose: 400.0 mg/kg/injection, schedule: Q04DX003 (ip), vehicle: saline with Tween-80
[7] = dose: 12.5 mg/kg/injection, schedule: Q04DX003 (ip), vehicle: saline
[8] = dose: 100.0 mg/kg/injection, schedule: Q01DX009 (ip), vehicle: Klucel (hydroxypropylcellulose) (HPC)
[9] = dose: 100.0 mg/kg/injection, schedule: Q01DX001 (ip), vehicle: saline with Tween-80
[10] = dose: 200.0 mg/kg/injection, schedule: Q01DX001 (ip), vehicle: saline with Tween-80
[11] = dose: 400.0 mg/kg/injection, schedule: Q01DX001 (ip), vehicle: saline with Tween-80
[12] = dose: 50.0 mg/kg/injection, schedule: Q04DX003 (ip), vehicle: saline
[13] = dose: 100.0 mg/kg/injection, schedule: Q01DX001 (ip), vehicle: saline
[14] = dose: 100.0 mg/kg/injection, schedule: Q04DX003 (ip), vehicle: saline
[15] = dose: 200.0 mg/kg/injection, schedule: Q01DX001 (ip), vehicle: saline
[16] = dose: 100.0 mg/kg/injection, schedule: Q04DX002 (ip), vehicle: Klucel (hydroxypropylcellulose) (HPC)

Measured: T/C

O=[N+]([O-])c1cccc(C=Nc2ccc(Cl)cc2Cl)c1
inactive: dose: 100.0 mg/kg/injection, schedule: Q01DX001 (ip), vehicle: Klucel (hydroxypropylcellulose) (HPC) 92 % of control | [1] 102 % of control | dose: 200.0 mg/kg/injection, schedule: Q01DX001 (ip), vehicle: Klucel (hydroxypropylcellulose) (HPC) 91 % of control | [2] 98 % of control | dose: 400.0 mg/kg/injection, schedule: Q01DX001 (ip), vehicle: Klucel (hydroxypropylcellulose) (HPC) 91 % of control | [3] 89 % of control

O=C(CCNC(=O)OCc1ccccc1)NCC(=O)OCc1ccccc1
inactive: [4] 103 % of control | [5] 97 % of control | [6] 92 % of control

CCCCC(C)(O)C(F)(F)F (stereo not given)
inactive: dose: 100.0 mg/kg/injection, schedule: Q01DX001 (ip), vehicle: steriod suspending solution 96 % of control | dose: 200.0 mg/kg/injection, schedule: Q01DX001 (ip), vehicle: steriod suspending solution 91 % of control | dose: 400.0 mg/kg/injection, schedule: Q01DX001 (ip), vehicle: steriod suspending solution 100 % of control

N#CCC[CH2][Sn]([Br])([Br])[c]1ccccc1
inactive: dose: 3.12 mg/kg/injection, schedule: Q04DX003 (ip), vehicle: saline 91 % of control | dose: 6.25 mg/kg/injection, schedule: Q04DX003 (ip), vehicle: saline 96 % of control | [7] 91 % of control

CCN=C(NCC)Nc1ccc(NC(=O)Nc2ccc(NC(=O)Nc3ccc(NC(=NCC)NCC)cc3)cc2)cc1
inactive: dose: 1.0 mg/kg/injection, schedule: Q01DX Z (ip), vehicle: carboxymethylcellulose (CMC) 97 % of control | dose: 2.0 mg/kg/injection, schedule: Q01DX Z (ip), vehicle: carboxymethylcellulose (CMC) 96 % of control | dose: 4.1 mg/kg/injection, schedule: Q01DX Z (ip), vehicle: carboxymethylcellulose (CMC) 102 % of control | dose: 8.3 mg/kg/injection, schedule: Q01DX Z (ip), vehicle: carboxymethylcellulose (CMC) 111 % of control

O=C(Nc1cc(C(F)(F)F)ccc1Cl)SCCSC(=O)Nc1cc(C(F)(F)F)ccc1Cl
inactive: [8] 87 % of control | [1] 102 % of control | dose: 200.0 mg/kg/injection, schedule: Q01DX009 (ip), vehicle: Klucel (hydroxypropylcellulose) (HPC) 103 % of control | [2] 100 % of control | dose: 400.0 mg/kg/injection, schedule: Q01DX009 (ip), vehicle: Klucel (hydroxypropylcellulose) (HPC) 93 % of control | [3] 97 % of control

NC(=O)c1cc(C(N)=O)c(N)nc1N
inactive: [1] 100 % of control | [2] 97 % of control | [3] 94 % of control

CC(C)SP(=S)(C(C)C)C(C)C
inactive: [9] 115 % of control | [10] 102 % of control | [11] 94 % of control

O=c1[nH]c2ccccc2c2ccc([N+](=O)[O-])cc12
inactive: dose: 100.0 mg/kg/injection, schedule: Q01DX001 (ip), vehicle: carboxymethylcellulose (CMC) 95 % of control | dose: 200.0 mg/kg/injection, schedule: Q01DX001 (ip), vehicle: carboxymethylcellulose (CMC) 106 % of control | dose: 400.0 mg/kg/injection, schedule: Q01DX001 (ip), vehicle: carboxymethylcellulose (CMC) 93 % of control

COc1ccc(-c2c(-c3ccccc3)c(=O)oc3ccc4ccccc4c23)cc1
inactive: [1] 97 % of control | [2] 100 % of control | [3] 97 % of control

CC(C)NCC(O)c1cccc(O)c1 (stereo not given)
inactive: [12] 101 % of control | [13] 98 % of control | [14] 101 % of control | [15] 97 % of control | dose: 200.0 mg/kg/injection, schedule: Q04DX003 (ip), vehicle: saline 104 % of control

Cc1ccc(S(N)(=O)=O)cc1
inactive: [4] 98 % of control | [5] 98 % of control | [6] 96 % of control

c1ccc(N=C(Nc2ccccc2)Nc2ccccc2)cc1
inactive: dose: 25.0 mg/kg/injection, schedule: Q01DX009 (ip), vehicle: Klucel (hydroxypropylcellulose) (HPC) 94 % of control | dose: 25.0 mg/kg/injection, schedule: Q04DX002 (ip), vehicle: Klucel (hydroxypropylcellulose) (HPC) 114 % of control | dose: 50.0 mg/kg/injection, schedule: Q01DX009 (ip), vehicle: Klucel (hydroxypropylcellulose) (HPC) 94 % of control | dose: 50.0 mg/kg/injection, schedule: Q04DX002 (ip), vehicle: Klucel (hydroxypropylcellulose) (HPC) 114 % of control | [8] 90 % of control | [16] 96 % of control and 98 % of control

CC(C)N1CNC(=O)C12CCN(CC1COc3ccccc3O1)CC2 (stereo not given)
inactive: [4] 104 % of control | [5] 106 % of control

C=CCc1ccc(OC(=O)Nc2ccc(Cl)cc2)c(OC)c1
inactive: [16] 115 % of control | dose: 200.0 mg/kg/injection, schedule: Q04DX002 (ip), vehicle: Klucel (hydroxypropylcellulose) (HPC) 107 % of control | dose: 400.0 mg/kg/injection, schedule: Q04DX002 (ip), vehicle: Klucel (hydroxypropylcellulose) (HPC) 100 % of control

c1cc[n+]2c(c1)-c1cccc[n+]1CC2
inactive: dose: 6.25 mg/kg/injection, schedule: Q01DX009 (ip), vehicle: saline 108 % of control | dose: 12.5 mg/kg/injection, schedule: Q01DX009 (ip), vehicle: saline 104 % of control | [7] 104 % of control | dose: 15.0 mg/kg/injection, schedule: Q01DX001 (ip), vehicle: saline 95 % of control | dose: 25.0 mg/kg/injection, schedule: Q04DX003 (ip), vehicle: saline 104 % of control | dose: 30.0 mg/kg/injection, schedule: Q01DX001 (ip), vehicle: saline 102 % of control | [12] 101 % of control | dose: 60.0 mg/kg/injection, schedule: Q01DX001 (ip), vehicle: saline 102 % of control | dose: 75.0 mg/kg/injection, schedule: Q01DX001 (ip), vehicle: saline 95 % of control

C(CCCCCC1CCCC2CCCCC12)CCCCC1CCCC2CCCCC12 (stereo not given)
inactive: [9] 98 % of control | [10] 98 % of control | [11] 98 % of control

O=S(=O)(CCCl)Cc1ccccc1
inactive: dose: 100.0 mg/kg/injection, schedule: Q04DX002 (ip), vehicle: saline with Tween-80 115 % of control | dose: 200.0 mg/kg/injection, schedule: Q04DX002 (ip), vehicle: saline with Tween-80 94 % of control

O=C1c2cccc(O)c2C(=O)c2c(O)cc(CO)cc21
inactive: [13] 98 % of control | [15] 95 % of control | dose: 400.0 mg/kg/injection, schedule: Q01DX001 (ip), vehicle: saline 95 % of control

CC(=O)NCCN
inactive: [14] 92 % of control | dose: 400.0 mg/kg/injection, schedule: Q04DX003 (ip), vehicle: saline 108 % of control

O=C(Nc1cc(NC(=O)Nc2cccc(C3=NCCN3)c2)cc(C(=O)Nc2ccccc2)c1)Nc1cccc(C2=NCCN2)c1
inactive: dose: 15.0 mg/kg/injection, schedule: Q01DX Z (ip), vehicle: carboxymethylcellulose (CMC) 94 % of control | dose: 30.0 mg/kg/injection, schedule: Q01DX Z (ip), vehicle: carboxymethylcellulose (CMC) 103 % of control | dose: 60.0 mg/kg/injection, schedule: Q01DX Z (ip), vehicle: carboxymethylcellulose (CMC) 97 % of control | dose: 120.0 mg/kg/injection, schedule: Q01DX Z (ip), vehicle: carboxymethylcellulose (CMC) 107 % of control and 91 % of control | dose: 240.0 mg/kg/injection, schedule: Q01DX Z (ip), vehicle: carboxymethylcellulose (CMC) 104 % of control
